Earlier results, collected in patent US9278976B2, “Aminotetrahydropyrans as dipeptidyl peptidase-IV inhibitors for the treatment of diabetes” (Merck Sharp & Dohme Corp., priority 2008, dated 2016).

Legend:
[1] = rats; doubled from day 7
[2] = mouse, cyclophosphamide-induced neutropenia

Structure (SMILES)	cardiac allograft survival [1] [day]	hematopoiesis [2]
CC(C)N1CCC(c2ccccc2)(c2ccccc2)CC1 [Prodipine, Pro-Pro-diphenyl-phosphonate]	14	–
CC(C)[C@H](N)C(=O)N1CCC[C@H]1B(O)O [Val-Boro-Pro]	–	stimulated hematopoiesis
